Among the test systems are MOLT-4; OVCAR-4; ACHN; SK-MEL-5; IGROV-1; NCI/ADR-RES; HT-29; MDA-N; RXF 393; TK-10; KM12; SR; HOP-92; OVCAR-3; CAKI-1; A549; NCI-H226; SF-268; A498.
Experiment in all cases: growth of human tumour cells (NCI), 48 h

SMILES strings stand for the structures.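 Test compounds were applied to cells in 96-well plates for 48 hours at 5 doses. Abbreviation: GI50, concentration required for 50% inhibition of growth.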 Active and inactive are the calls of the source. No stated cut-off is given here; in the data, active = GI50 up to about 1.1 µM and inactive = higher.

Experimental findings from ChEMBL document CHEMBL1201862, “PubChem BioAssay data set” (2004) are described below.

Turning to `O=C(Nc1cc2c(=O)oc3ccccc3c2oc1=O)c1cccnc1`, the GI50 with MOLT-4 was > 100 µM (inactive); in the assay on OVCAR-4 it was > 100 µM (inactive); in the assay on ACHN, 50 µM (inactive); in the assay on SK-MEL-5, > 100 µM (inactive); in the assay on IGROV-1, > 100 µM (inactive); in the assay with NCI/ADR-RES it was > 100 µM (inactive). In addition, the GI50 in the assay on HT-29 was > 100 µM (inactive); in the assay on MDA-N it was > 100 µM (inactive); in the assay on RXF 393 it was > 100 µM (inactive); with TK-10 it was > 100 µM (inactive); with KM12, > 100 µM (inactive); in the assay on SR it was 78.5 µM (inactive). Also, the GI50 with HOP-92, in the assay on OVCAR-3, in the assay on CAKI-1, in the assay on A549 and in the assay with NCI-H226 was > 100 µM (inactive) each time.

Consider `CC1=NOC2(C1)/C(=N/O)CCC/C2=N\O` (stereo not drawn), for which the GI50 in the assay with MOLT-4, in the assay on OVCAR-4, in the assay on ACHN, with SK-MEL-5, with IGROV-1 and in the assay with NCI/ADR-RES was > 100 µM (inactive) throughout. The GI50 was > 100 µM (inactive) in the assay on HT-29; > 100 µM (inactive) in the assay on MDA-N; 3.39 µM (inactive) in the assay on RXF 393; > 100 µM (inactive) in the assay with TK-10; > 100 µM (inactive) in the assay with KM12; > 100 µM (inactive) in the assay with SR. The GI50 in the assay on SF-268, with OVCAR-3, in the assay on CAKI-1, with A549 and in the assay with NCI-H226 was > 100 µM (inactive) each time.

With `COC(=O)/C=C(\S/C(=C(/c1ccccc1)n1cc(C(=O)OC)c(C(=O)OC)n1)c1ccccc1)C(=O)OC`, the GI50 was 2.31 µM (inactive) in the assay with MOLT-4; 13 µM (inactive) in the assay on OVCAR-4; 3.29 µM (inactive) with ACHN; 19.3 µM (inactive) with SK-MEL-5; 17.7 µM (inactive) in the assay on IGROV-1; > 100 µM (inactive) in the assay with A498. The GI50 is 28.4 µM (inactive) in the assay on NCI/ADR-RES; 3.33 µM (inactive) in the assay on HT-29; 17.1 µM (inactive) in the assay with MDA-N; 13.6 µM (inactive) in the assay on RXF 393; 2.86 µM (inactive) with TK-10; 54.6 µM (inactive) in the assay on KM12. Moreover, the GI50 in the assay on SR is 11.6 µM (inactive); in the assay on SF-268, 16.1 µM (inactive); in the assay on OVCAR-3 it was 3.27 µM (inactive); in the assay with CAKI-1, 2.48 µM (inactive); in the assay with A549, 23.9 µM (inactive); in the assay on NCI-H226, 89.1 µM (inactive).

On to `COC(=O)Nc1nc(=O)c2ccccc2[nH]1`, for which the GI50 was > 100 µM (inactive) in the assay on MOLT-4; > 100 µM (inactive) in the assay with OVCAR-4; > 100 µM (inactive) in the assay on ACHN; 55 µM (inactive) with SK-MEL-5; > 100 µM (inactive) with IGROV-1; > 10 µM (inactive) with A498. In addition, the GI50 in the assay with NCI/ADR-RES was > 100 µM (inactive); in the assay with HT-29, > 100 µM (inactive); in the assay with MDA-N, 19.5 µM (inactive); in the assay on RXF 393 it was 36.8 µM (inactive); with TK-10 it was > 100 µM (inactive); in the assay on KM12 it was 90.4 µM (inactive). The GI50 is > 100 µM (inactive) in the assay on SR; > 100 µM (inactive) in the assay with SF-268; > 100 µM (inactive) with OVCAR-3; > 100 µM (inactive) in the assay with CAKI-1; 0.0775 µM (active) in the assay with A549; > 100 µM (inactive) in the assay on NCI-H226.

In the case of `O=S1(=O)OCCOS(=O)(=O)C1(F)Br`, the GI50 with MOLT-4, with OVCAR-4, in the assay with ACHN, in the assay on SK-MEL-5, in the assay on NCI/ADR-RES and in the assay on HT-29 was > 100 µM (inactive) each time. The GI50 with MDA-N, in the assay with RXF 393, with TK-10, in the assay with KM12, in the assay on SR and with SF-268 was > 100 µM (inactive) in each case. For the same compound, the GI50 with OVCAR-3, with CAKI-1, in the assay on A549 and with NCI-H226 was > 100 µM (inactive) throughout.

In the case of `CC(CO)(CBr)COC(=O)c1cc(Br)c(N)c(Br)c1` (stereo not drawn), the GI50 is > 100 µM (inactive) in the assay on MOLT-4; > 100 µM (inactive) in the assay with OVCAR-4; 73.8 µM (inactive) with ACHN; > 100 µM (inactive) in the assay on SK-MEL-5; 33.9 µM (inactive) in the assay on IGROV-1; 62.2 µM (inactive) in the assay with A498. The GI50 with NCI/ADR-RES is > 100 µM (inactive); in the assay on HT-29, > 100 µM (inactive); with MDA-N, 59.7 µM (inactive); in the assay on TK-10, 43 µM (inactive); in the assay with KM12, > 100 µM (inactive); with SR, 30.7 µM (inactive). Moreover, the GI50 in the assay on SF-268 is 29.3 µM (inactive); in the assay on HOP-92 it was 20.4 µM (inactive); in the assay on OVCAR-3 it was > 100 µM (inactive); in the assay with CAKI-1, 81.3 µM (inactive); with A549 it was > 100 µM (inactive); with NCI-H226, > 100 µM (inactive).

With `N#CCc1nc(-c2cc3ccccc3oc2=O)cs1`, the GI50 is 16.6 µM (inactive) in the assay with MOLT-4; 44.1 µM (inactive) with OVCAR-4; 42.5 µM (inactive) in the assay on ACHN; 26.4 µM (inactive) in the assay on SK-MEL-5; 40.6 µM (inactive) in the assay on IGROV-1; 79.6 µM (inactive) with NCI/ADR-RES. Also, the GI50 was 54 µM (inactive) in the assay on HT-29; 37.2 µM (inactive) in the assay on MDA-N; > 100 µM (inactive) in the assay with RXF 393; > 100 µM (inactive) in the assay on TK-10; 26.7 µM (inactive) in the assay on KM12; 43.6 µM (inactive) with SR. Also, the GI50 in the assay with SF-268 is > 100 µM (inactive); with HOP-92, 41.7 µM (inactive); in the assay with CAKI-1, > 100 µM (inactive); in the assay on A549 it was > 100 µM (inactive); in the assay with NCI-H226, 36.8 µM (inactive).

For `CN(C)CCCN1c2ccccc2CCc2ccc([N+](=O)[O-])cc21`, the GI50 was 33.3 µM (inactive) in the assay with MOLT-4; 35.5 µM (inactive) with OVCAR-4; 34.6 µM (inactive) in the assay with ACHN; 15.8 µM (inactive) with SK-MEL-5; 14.9 µM (inactive) in the assay with IGROV-1; 17.7 µM (inactive) in the assay with A498. The GI50 was 19.1 µM (inactive) with NCI/ADR-RES; 19.1 µM (inactive) in the assay with HT-29; 18.5 µM (inactive) in the assay with MDA-N; 18.7 µM (inactive) in the assay on TK-10; 18.1 µM (inactive) in the assay on KM12; 25.9 µM (inactive) in the assay with SR. Moreover, the GI50 was 29.6 µM (inactive) with SF-268; 34.5 µM (inactive) in the assay on OVCAR-3; 40.6 µM (inactive) in the assay on CAKI-1; 34.6 µM (inactive) with A549; 26.2 µM (inactive) with NCI-H226.

Take `Cn1c(=O)sc2cc(C(=S)N3CCC(Cc4ccccc4)CC3)ccc21`: the GI50 with MOLT-4 is 20.9 µM (inactive); in the assay on ACHN, > 100 µM (inactive); with SK-MEL-5 it was 26.9 µM (inactive); in the assay with IGROV-1, 33.8 µM (inactive); with A498, > 100 µM (inactive); with NCI/ADR-RES, 21.4 µM (inactive). Moreover, the GI50 is 62.1 µM (inactive) in the assay with HT-29; 72.1 µM (inactive) with MDA-N; 21.6 µM (inactive) with RXF 393; > 100 µM (inactive) in the assay with TK-10; 34.7 µM (inactive) in the assay on KM12; 17.7 µM (inactive) in the assay on SR. Also, the GI50 in the assay on SF-268 was 28.7 µM (inactive); in the assay with OVCAR-3 it was 53.8 µM (inactive); in the assay with CAKI-1 it was 61.5 µM (inactive); with NCI-H226, 15.3 µM (inactive).

Turning to `CN(CCN(C)Cc1ccc(Cl)c(Cl)c1)CCN1CCCC1`, the GI50 in the assay on MOLT-4 is 9.33 µM (inactive); in the assay on OVCAR-4, 52.5 µM (inactive); with ACHN, > 43.3 µM (inactive); in the assay on SK-MEL-5 it was 14.9 µM (inactive); with IGROV-1 it was 15.8 µM (inactive); in the assay on A498 it was 16.1 µM (inactive). In addition, the GI50 in the assay on NCI/ADR-RES was 67.3 µM (inactive); with HT-29, 6.32 µM (inactive); with MDA-N, 13.2 µM (inactive); in the assay with RXF 393, 18.5 µM (inactive); in the assay with TK-10 it was 40 µM (inactive); in the assay on KM12, 29.9 µM (inactive). The GI50 in the assay with SF-268 was 10.4 µM (inactive); in the assay on HOP-92 it was 4.44 µM (inactive); with OVCAR-3, > 75.7 µM (inactive); in the assay on CAKI-1 it was 36 µM (inactive); in the assay with A549, 22.6 µM (inactive); in the assay with NCI-H226, 39.1 µM (inactive).

For the compound `Cc1nc(N)c(N2CCN(C(=O)O)CC2)c(O)n1`, the GI50 in the assay with MOLT-4, in the assay on OVCAR-4, in the assay on ACHN, in the assay on A498, with NCI/ADR-RES and in the assay with HT-29 was > 100 µM (inactive) in each case. Further, the GI50 in the assay on MDA-N, in the assay with TK-10, in the assay with KM12, with SR, with SF-268 and in the assay with HOP-92 was > 100 µM (inactive) throughout. The GI50 with OVCAR-3, in the assay with A549 and with NCI-H226 was > 100 µM (inactive) in each case.

As for `COc1ccc(OC)c(C2CCCc3c2cnc2nc(N)nc(N)c32)c1` (stereo not drawn), the GI50 with MOLT-4 is < 0.0168 µM (active); with OVCAR-4, > 100 µM (inactive); in the assay with ACHN, < 0.01 µM (active); with SK-MEL-5 it was < 0.01 µM (active); in the assay on IGROV-1, < 0.01 µM (active); with NCI/ADR-RES it was 1.04 µM (active). The GI50 in the assay with HT-29 was < 0.01 µM (active); in the assay on MDA-N, < 0.01 µM (active); in the assay with RXF 393, < 0.0129 µM (active); in the assay with TK-10 it was 0.0217 µM (active); in the assay with KM12, 0.0716 µM (active); in the assay with SR, < 0.01 µM (active). In addition, the GI50 with HOP-92 was 0.863 µM (active); in the assay on CAKI-1, 0.0982 µM (active); in the assay with A549, < 0.01 µM (active); with NCI-H226, > 100 µM (inactive).
